In patent US20230089557A1, “METHODS OF TREATING DLBCL USING BTK INHIBITORS AND COMBINATIONS THEREOF” (BEIGENE SWITZERLAND GMBH, priority 2020, published 2023):

Legend:
Assay type in all cases: in vivo, mice
Conditions in all cases: p.o. 7.5 mg/kg BID
[1] = test system: Non-GCB DLBCL PDX models; assay: Compound 1 efficacy (TGI) in non-GCB DLBCL PDX models by CD79B / CD79B ITAM mutation
Description: (§1) DLBCL patient-derived xenografted (PDX) models were established in immunodeficient NCG (NOD-Prkdcem26Cd52Il2rgem26Cd22/NjuCrl) mice. These models were classified into GCB and non-GCB subgroups based on immunohistochemistry (IHC) staining using Hans algorithm. Non-GCB DLBCL PDX models were classified into CD79B mutant versus CD79B wildtype groups; or CD79B ITAM domain mutant (amino acid 193-210) versus CD79B ITAM domain wildtype groups. For efficacy studies, tumor tissues were inoculated subcutaneously into NCG mice. When tumors reached 100˜200 mm^3, mice were randomized into each group with 7˜10 mice/group based on tumor volume. Compound 1 was formulated with 0.5% methyl cellulose as vehicle and treatment was started on the day of randomized grouping. Compound 1 was administrated p.o., 7.5 mg/(kg body weight), BID. Tumor volumes were measured twice weekly in two dimensions using a caliper, and the volume were expressed in mm^3 using the formula:
(§2) V=0.5(a×b^2) where a and b are the long and short diameters of the tumor, respectively.
(§3) Tumor growth inhibition (TGI) was calculated using the following formula:
(§4) % TGI=100×[1−(treatmentvt−treatmentv0)/(vehiclevt−Vehiclev0)]
(§5) Treatmentvt=tumor volume of treatment group at time t.
(§6) treatmentv0=tumor volume of treatment group at time of treatment started.
(§7) Vehiclevt=tumor volume of vehicle group at time t.
(§8) Vehiclev0=tumor volume of vehicle group at time of treatment started.
(§9) P value was calculated using two tails t test.

[2] = test system: DLBCL patient-derived xenografted (PDX) models; assay: Compound 1 efficacy (TGI) in DLBCL PDX models, GCB vs non-GCB
Description: as §1, with “algorithm (Hans, C. P., et al., Blood, 2004. 103 (1): p. 275-282).” for “algorithm. Non-GCB DLBCL PDX models were classified into CD79B mutant versus CD79B wildtype groups; or CD79B ITAM domain mutant (amino acid 193-210) versus CD79B ITAM domain wildtype groups.”, “100-200” for “100˜200”, “7-10” for “7˜10”
as §2, §3, §4, §5, §6, §7, §8, §9

[3] = test system: Non-GCB DLBCL PDX models; assay: Compound 1 efficacy (TGI) in non-GCB DLBCL PDX models by EBV status
Description: as §1, with “Epstein-Barr virus (EBV) negative and EBV positive subgroups.” for “CD79B mutant versus CD79B wildtype groups; or CD79B ITAM domain mutant (amino acid 193-210) versus CD79B ITAM domain wildtype groups.”
as §2, §3, §4, §5
treatmentv0=tumor volume of treatment group at time of treatment started. […]
Average TGI of each model was used and represented as a dot point in the figure. P value was calculated using two tails t test to compare difference between groups.

C=CC(=O)N1CCC([C@@H]2CCNc3c(C(N)=O)c(-c4ccc(Oc5ccccc5)cc4)nn32)CC1 [Compound 1, (S)-7-(1-acryloylpiperidin-4-yl)-2-(4-phenoxyphenyl)-4,5,6,7-tetra-hydropyrazolo[1,5-a]pyrimidine-3-carboxamide]
TGI (mean±SD) ([1]; CD79B ITAM domain mutation non-GCB DLBCL models): 96.00±28.83% | TGI (mean±SD) ([1]; CD79B mutation non-GCB DLBCL models): 87.5±33.14% | TGI (mean±SD) ([1]; CD79B wildtype non-GCB DLBCL models): 49.44±42.36% | TGI (mean±SD) ([2]; GCB subtype PDX models): 25.5±11.96% | TGI (mean±SD) ([2]; non-GCB DLBCL PDX models): 63.60±42.92% | TGI (mean±SD) ([3]; EBV negative non-GCB DLBCL models): 78.00±43.41% | TGI (mean±SD) ([3]; EBV positive non-GCB DLBCL models): 33.25±22.41%
